Measurements taken from BindingDB's records for doi:10.1016/j.bioorg.2016.01.003 (Panjab University, 2016).
pKi: −log10 of the molar value.

Legend:
Assay in all cases: Radioligand Binding Assay
Adenosine receptor A2a = Adenosine receptor A2a (Homo sapiens, UniProt P29274)
Description: (§1) Dissociation constants at A1, A2A and A3 receptors (Ki-values) were determined in radioligand competition experiments as reported earlier [19,20]. All binding experiments were done in a microplate format utilizing a 96-well microplate filtration system (Millipore Multiscreen MAFC). As radioligands the agonists [3H]CCPA (1 nM) for A1, [3H]NECA (10 nM) for A2A, and [3H]HEMADO (1 nM) for A3 receptors were used. Samples were incubated with 10 µg of membrane protein for 3 h at 25 °C, filtered through the built-in filter at the bottom of the wells and washed three times with […] of ice-cold binding buffer. After addition of 20 µl of scintillator to the dried filter plates samples were counted in a Wallac Micro-Beta counter. Nonspecific binding was determined in the presence of 1 mM theophylline ([3H]CCPA) or […] (N6-phenylisopropyladenosine; [3H]NECA and [3H] HEMADO).

Adenosine receptor A1 = target: T1, Adenosine receptor A1 (Homo sapiens, UniProt P30542)
T1 sequence (P30542 whole entry): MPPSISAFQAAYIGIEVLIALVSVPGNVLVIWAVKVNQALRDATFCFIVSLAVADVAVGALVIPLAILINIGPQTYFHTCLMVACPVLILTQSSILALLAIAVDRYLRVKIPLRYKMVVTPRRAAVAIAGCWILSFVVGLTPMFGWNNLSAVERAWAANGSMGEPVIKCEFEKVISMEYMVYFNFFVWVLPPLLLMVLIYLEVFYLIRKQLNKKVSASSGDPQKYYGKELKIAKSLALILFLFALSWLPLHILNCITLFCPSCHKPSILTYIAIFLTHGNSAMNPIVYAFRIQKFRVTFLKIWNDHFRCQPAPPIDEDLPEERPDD
Description: as §1

Adenosine receptor A2b = target: T2, Adenosine receptor A2b (Homo sapiens, UniProt P29275)
T2 sequence (P29275 whole entry): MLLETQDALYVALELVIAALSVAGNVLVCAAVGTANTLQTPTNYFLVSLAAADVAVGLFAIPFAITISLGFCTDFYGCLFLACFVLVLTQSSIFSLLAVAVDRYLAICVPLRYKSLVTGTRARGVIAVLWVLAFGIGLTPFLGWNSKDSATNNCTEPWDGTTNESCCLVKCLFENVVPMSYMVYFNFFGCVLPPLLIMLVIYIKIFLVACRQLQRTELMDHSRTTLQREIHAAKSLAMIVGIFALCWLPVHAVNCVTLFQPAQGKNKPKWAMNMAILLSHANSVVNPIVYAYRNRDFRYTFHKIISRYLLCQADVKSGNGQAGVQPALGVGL

Chain of Adenosine receptor A2a (P29274 whole entry): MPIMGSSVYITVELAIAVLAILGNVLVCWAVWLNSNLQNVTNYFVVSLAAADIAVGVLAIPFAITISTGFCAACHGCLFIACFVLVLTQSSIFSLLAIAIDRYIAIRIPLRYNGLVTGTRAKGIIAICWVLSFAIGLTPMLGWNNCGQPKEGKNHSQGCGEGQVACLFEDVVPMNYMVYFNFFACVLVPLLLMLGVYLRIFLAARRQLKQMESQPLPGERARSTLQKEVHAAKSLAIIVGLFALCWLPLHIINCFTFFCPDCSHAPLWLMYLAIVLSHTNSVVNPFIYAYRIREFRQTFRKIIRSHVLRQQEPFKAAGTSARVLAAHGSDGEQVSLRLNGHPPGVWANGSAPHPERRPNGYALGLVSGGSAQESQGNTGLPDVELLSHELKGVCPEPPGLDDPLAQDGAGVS

| SMILES | pKi (Adenosine receptor A2a) | pKi (Adenosine receptor A1) | pKi (Adenosine receptor A2b) |
| --- | --- | --- | --- |
| COC(=O)COc1cccc(-c2nc3c([nH]2)c(=O)n(C)c(=O)n3C)c1 [1,3-Dimethyl-8-[3-(2-methoxy-2-oxoethoxy)-phenyl]xanthine (14, RB-374)] | 6.43 | 5.40 | < 5.00 |
| COc1cc(-c2nc3c([nH]2)c(=O)n(C)c(=O)n3C)ccc1OCC(=O)N1CCN(C)CC1 [1,3-Dimethyl-8-[3-methoxy-4-{2-(1-methylpiperazin-4-yl)-2-oxoethoxy}-phenyl]-xanthine (15g, RB-446)] | 5.38 | < 4.52 | < 5.00 |
| COc1cc(-c2nc3c([nH]2)c(=O)n(C)c(=O)n3C)ccc1OCC(=O)N1CCOCC1 [1,3-Dimethyl-8-[3-methoxy-4-{2-(morpholin-1-yl)-2-oxoethoxy}-phenyl]xanthine (15f, RB-385)] | 5.56 | < 4.52 | < 4.52 |
| COc1cc(-c2nc3c([nH]2)c(=O)n(C)c(=O)n3C)ccc1OCC(=O)N1CCCCC1 [1,3-Dimethyl-8-[3-methoxy-4-{2-(piperidin-1-yl)-2-oxoethoxy}-phenyl]xanthine (15d, RB-391)] | 5.47 | < 4.52 | < 5.00 |
| COc1cc(-c2nc3c([nH]2)c(=O)n(C)c(=O)n3C)ccc1OCC(=O)N1CCCC1 [1,3-Dimethyl-8-[3-methoxy-4-{2-(pyrrolidin-1-yl)-2-oxoethoxy}-phenyl]xanthine (15c, RB-392)] | 5.34 | < 4.52 | < 4.52 |
| CN1CCN(C(=O)COc2cccc(-c3nc4c([nH]3)c(=O)n(C)c(=O)n4C)c2)CC1 [1,3-Dimethyl-8-[3-{2-(1-methylpiperazin-4-yl)-2-oxoethoxy}-phenyl]xanthine (14g, RB-380)] | 6.25 | 5.72 | 5.09 |
| CN(C)CCNC(=O)COc1cccc(-c2nc3c([nH]2)c(=O)n(C)c(=O)n3C)c1 [1,3-Dimethyl-8-[3-{2-(dimethylaminoethylamino)-2-oxoethoxy}-phenyl]xanthine (14a, RB-379)] | 6.79 | 6.17 | 5.55 |
| Cn1c(=O)c2[nH]c(-c3cccc(OCC(=O)N4CCCCCC4)c3)nc2n(C)c1=O [1,3-Dimethyl-8-[3-{2-(hexamethyleneimin-1-yl)-2-oxoethoxy}-phenyl]xanthine (14e, RB-376)] | 6.65 | 5.61 | 5.20 |
| COc1ccc(CCNC(=O)COc2cccc(-c3nc4c([nH]3)c(=O)n(C)c(=O)n4C)c2)cc1OC [1,3-Dimethyl-8-[3-{2-(homoveratrylamino)-2-oxoethoxy}-phenyl]xanthine (14i, RB-377)] | 5.86 | 5.22 | < 5.00 |
| Cn1c(=O)c2[nH]c(-c3cccc(OCC(=O)n4ccnc4)c3)nc2n(C)c1=O [1,3-Dimethyl-8-[3-{2-(imidazol-1-yl)-2-oxoethoxy}-phenyl]xanthine (14h, RB-445)] | 6.29 | < 4.52 | < 4.52 |
| Cn1c(=O)c2[nH]c(-c3cccc(OCC(=O)N4CCOCC4)c3)nc2n(C)c1=O [1,3-Dimethyl-8-[3-{2-(morpholin-1-yl)-2-oxoethoxy}-phenyl]xanthine (14f, RB-375)] | 6.17 | 5.27 | < 5.00 |
| Cn1c(=O)c2[nH]c(-c3cccc(OCC(=O)N4CCCCC4)c3)nc2n(C)c1=O [1,3-Dimethyl-8-[3-{2-(piperidin-1-yl)]-2-oxoethoxy}-phenyl]xanthine (14d, RB-382)] | 6.68 | 5.82 | 5.39 |
| Cn1c(=O)c2[nH]c(-c3cccc(OCC(=O)N4CCCC4)c3)nc2n(C)c1=O [1,3-Dimethyl-8-[3-{2-(pyrrolidin-1-yl)-2-oxoethoxy}-phenyl]xanthine (14c, RB-381)] | 6.63 | 5.48 | < 5.00 |
| COC(=O)COc1ccc(-c2nc3c([nH]2)c(=O)n(C)c(=O)n3C)cc1 [1,3-Dimethyl-8-[4-(2-methoxy-2-oxoethoxy)-phenyl]xanthine (13, RB-419)] | 6.77 | 6.50 | 6.01 |
| COc1ccc(-c2nc3c([nH]2)c(=O)n(C)c(=O)n3C)cc1OCC(=O)N1CCN(C)CC1 [1,3-Dimethyl-8-[4-methoxy-3-{2-(1-methylpiperazin-4-yl)-2-oxo-ethoxy}-phenyl]xanthine (16g, RB-416)] | 6.16 | 5.44 | 5.18 |
| COc1ccc(-c2nc3c([nH]2)c(=O)n(C)c(=O)n3C)cc1OCC(=O)N1CCCCC1 [1,3-Dimethyl-8-[4-methoxy-3-{2-(piperidin-1-yl)-2-oxoethoxy}-phenyl]xanthine (16d, RB-417)] | 7.12 | 5.79 | < 5.00 |
| COc1ccc(-c2nc3c([nH]2)c(=O)n(C)c(=O)n3C)cc1OCC(=O)N1CCCC1 [1,3-Dimethyl-8-[4-methoxy-3-{2-(pyrrolidin-1-yl)-2-oxoethoxy}-phenyl]xanthine (16c, RB-414)] | 6.59 | 5.23 | < 5.00 |
| COc1ccc(-c2nc3c([nH]2)c(=O)n(C)c(=O)n3C)cc1OCC(=O)N1CCOCC1 [1,3-Dimethyl-8-[4-methoxy-3-{(2-(morpholin-1-yl)-2-oxoethoxy}-phenyl]-xanthine (16f, RB-415)] | 6.33 | 5.45 | < 5.00 |
| CN(C)CCNC(=O)COc1ccc(-c2nc3c([nH]2)c(=O)n(C)c(=O)n3C)cc1 [1,3-Dimethyl-8-[4-{2-(dimethylaminoethylamino)-2-oxoethoxy}-phenyl]xanthine (13a, RB-420)] | 7.00 | 6.66 | 6.04 |
| Cn1c(=O)c2[nH]c(-c3ccc(OCC(=O)N4CCCCCC4)cc3)nc2n(C)c1=O [1,3-Dimethyl-8-[4-{2-(hexamethyleneimin-1-yl)-2-oxoethoxy}-phenyl]xanthine (13e, RB-424)] | 6.56 | 6.22 | 6.35 |
| Cn1c(=O)c2[nH]c(-c3ccc(OCC(=O)N4CCCCC4)cc3)nc2n(C)c1=O [1,3-Dimethyl-8-[4-{2-(piperidin-1-yl)-2-oxoethoxy}-phenyl]xanthine (13d, RB-427)] | 6.75 | 6.38 | 6.40 |
| Cn1c(=O)c2[nH]c(-c3ccc(OCC(=O)N4CCCC4)cc3)nc2n(C)c1=O [1,3-Dimethyl-8-[4-{2-(pyrrolidin-1-yl)-2-oxoethoxy}-phenyl]xanthine (13c, RB-426)] | 6.91 | 6.10 | 5.83 |
| COc1ccc(-c2nc3c([nH]2)c(=O)n(C)c(=O)n3C)cc1OCC(=O)NCCN(C)C [1,3-Dimethyl-8-[{3-(2-(dimethylaminoethylamino)-2-oxoethoxy)-4-methoxy}-phenyl]-xanthine (16a, RB-413)] | 7.12 | 6.07 | 5.32 |
| COc1ccc(-c2nc3c([nH]2)c(=O)n(C)c(=O)n3C)cc1OCC(=O)N1CCCCCC1 [1,3-Dimethyl-8-[{3-(2-(hexamethyleneimin-1-yl)-2-oxoethoxy)-4-methoxy}-phenyl]xanthine (16e, RB-449)] | 7.03 | 5.72 | 5.40 |
| COc1ccc(CCNC(=O)COc2cc(-c3nc4c([nH]3)c(=O)n(C)c(=O)n4C)ccc2OC)cc1OC [1,3-Dimethyl-8-[{3-(2-(homoveratrylamino)-2-oxoethoxy)-4-methoxy}-phenyl]xanthine (16i, RB-412)] | 6.11 | < 4.52 | < 4.52 |
